molecular target: Dual specificity tyrosine-phosphorylation-regulated kinase 1A (Homo sapiens, UniProt Q13627); test: Binding affinity to DYRK1A (unknown origin)

Row | Kd | Compound
1 | 0.5 nM | Cc1nc2ccc(-c3cnn(C4CC4)c3)nc2n1-c1ccc(N2CCOCC2)c(F)c1
2 | 0.5 nM | NC(=O)c1ccc(-n2cnc3ccc(-c4ccncc4)c(F)c32)nc1
3 | 0.5 nM | Fc1c(-c2ccncc2)ccc2ncn(-c3ccc4c(c3)OCO4)c12
4 | 0.5 nM | c1cc(-c2ccc3ncn(-c4ccc5c(c4)OCO5)c3n2)ccn1
5 | 101 nM | CC(=O)N1CC[C@H](n2c(C)nc3ccc(-c4ccncc4)nc32)C1

Further lines, the compound ahead of its results:

Row | Compound | Kd
6 | O=C(O)c1ccc(-n2cnc3ccc(-c4ccncc4)nc32)cc1 | 0.5 nM
7 | Cc1nc2ccc(-c3ccncc3)nc2n1-c1ccc(CN2CCOCC2)cc1 | 0.5 nM
8 | CC(=O)N1C[C@@H]2[C@H](C1)[C@H]2n1c(C)nc2ccc(-c3ccncc3)nc21 | 0.5 nM
9 | Cc1nc2ccc(-c3ccncc3)nc2n1-c1ccc2c(c1)OCC(=O)N2 | 0.5 nM
10 | COC(=O)c1ccc(-n2cnc3ccc(-c4ccncc4)c(F)c32)cc1 | 0.5 nM
